According to patent US10806711B2 (priority 2011, dated 2020):
pEC50: −log10 of the molar value. “Also recorded” adds a separate entry of the source.

Columns and labels:
TRPV2 = details: HEK293 cells, identified 2007; cited from earlier work
WT mice = assay: Invasive evaluation of +dP/dt (LV pressure catheter); format: in vivo, mouse; details: 30 mg/kg and 100 mg/kg bolus IV, 5 minutes between doses
Experimental: Invasive evaluation.—Once a dose range was established, a separate group of WT mice were anesthetized with an intraperitoneal injection of ketamine (50 μg/g) and inactin (thiobutabarbital, 100 μg/g, Sigma, Mass.). A tracheotomy was performed (PE-90), and body temperature was monitored and maintained with a feedback-controlled heating table. The right femoral artery was cannulated with fluid-filled polyethylene tubing for measurement of blood pressure and connected to a low compliance pressure transducer (COBE Cardiovascular, Arvada, Colo.). The right femoral vein was cannulated for delivery of drugs. A high fidelity, 1.2-French SciSence pressure catheter (SciSence, London, ON, Canada) was inserted into the right carotid artery and advanced into the left ventricle to monitor cardiac performance. ECG leads were placed on the right and left arms, and left leg and connected to a BIOAmp (AD Instruments, Colorado Springs, Colo.). For carotid blood flow measurements, the left carotid artery was isolated and fitted with a 0.5-PSB perivascular flow probe connected to a TS420 flowmeter (Transonic Systems, Ithaca, N.Y.). […] Hemodynamic variables were collected and analyzed using a MacLab 4/S system (AD Instruments, Colorado Springs, Colo.) and Chart software.

healthy pig model = assay: Cardiac function by echocardiography in healthy porcine model; format: in vivo
mice after I/R injury [1] = assay: Ischemia/Reperfusion followed by oral probenecid (echocardiography); format: in vivo, mouse
Experimental: (§1) Ischemia/Reperfusion methods—Mice were anesthetized with sodium pentobarbital and the heart exposed through a left thoracotomy at the level of the fourth intercostal space. The mice were intubated and placed on a mini-ventilator (Harvard apparatus, Holliston, Mass.). A loop occluder was placed around the left anterior descending artery (LAD), and tightened, occluding it for either 30 minutes or 45 minutes. After surgery, the thorocotomy was sutured in layers, and the animal was allowed to recover. Echocardiography methods—All echocardiographic studies were performed as previously described for Example 1.

[2] = system: isolated ventricular myocytes; assay: Myocyte contractility measurement; format: cell-based, mouse
Experimental: Isolation of ventricular myocytes—Hearts from WT mice (12-week old) were perfused on the Langendorff system with a modified Krebs-Henseleit buffer (KHB) composed of (mM) NaCl 118, KCl 5.4, HEPES 10, NaH2PO4 0.33, MgCl2 2, glucose 10, taurine 30, butanedione monoxime 10 (pH=7.4). Then an enzyme solution (KHB containing 0.7 mg/ml type II collagenase, 0.1% BSA and 25 μM CaCl2) was used to digest the hearts for 10 min. Finally, ventricles of the hearts were excised, minced and filtered to obtain isolated cells. After sufficient sedimentation, the supernatant was removed and the cells were resuspended. Myocyte contractility measurement—Myocytes were put on a plexiglass chamber containing a Tyrode's solution composed of (mM) NaCl 140, KCl, 5.4, MgCl2 1, CaCl2 1.8, HEPES 5, glucose 10 (pH=7.4). Myocytes were excited under 0.5 Hz field stimulation. After reaching the steady state, myocyte shortening and the rates of shortening (+dL/dt) and relengthening (−dL/dt) were imaged with a CCD camera and monitored by a video-edge detector. Drugs were dissolved in Tyrode's solution and perfused into the chamber. Data were continuously collected through the PCLAMP 9 software. Water soluble probenecid was used for all of the myocyte experiments.

mice after I/R injury [3] = assay: Ischemia/Reperfusion followed by probenecid bolus (echocardiography); format: in vivo, mouse
Experimental: as §1, with “1. […] The mice were imaged at 5 minute intervals for a total of 30 minutes.” for “1.”

[4] = system: mice with and without I/R injury; details: mouse, in vivo, po, 6.33 mg/kg/day
Experimental: The hearts were removed, rinsed with PBS, fixed with 3.7% buffered formaldehyde (after 30 minutes the buffer was changed) and dehydrated (hearts were placed in 70% ethanol after 18-24 hours). The samples were embedded in paraffin, sectioned into thicknesses of 6 μm, each 10 μm apart, and 2 heart sections were placed onto each slide. The slides were prepared using the in situ apoptosis detection kit, CardioTACS (Trevigen, Gaithersburg, Md.) according to the manufacturer's instructions. After staining, the slides were placed on a microscope (Olympus 1×71) and the number of apoptotic cells was counted by two separate and blinded readers in 5 fields of view for each heart section. The total number of cells was also determined for the same field, and the apoptotic cells were calculated to be a percentage of the total cells.
The water was changed twice a week and the volume was measured before and after consumption to determine the approximate dose. The mice were housed 2 to a cage for a more accurate assessment of total dose administered.

TRPV2^+/− mice = assay: Contractility by echo after IP probenecid in TRPV2+/− mice; format: in vivo, mouse; details: 100 mg/kg
Experimental: WT, TRPV2^+/−, and TRPV2^−/− mice were monitored by echo for 30 minutes after injection as described below. Echocardiography—All echocardiographic studies were performed with a Vevo 2100 Ultrasound system (Visualsonics, Toronto Calif.) with an MS400 probe (30 MHz centerline frequency) and were post-processed at a separate workstation with Vevostrain software (Vevo 2100, v1.1.1 B1455, Visualsonic, Toronto, Canada). Images were obtained from PSLAX and short axis (SAX) views at depths between 2 and 10 mm in both M-mode and B-mode. All studies on mice exposed to I/R injury included M-mode, B-mode in PSLAX and strain imaging in SAX. While for the contractility studies, only M-mode measurements were obtained from the PSLAX. Strain imaging was performed from the B-mode images and regional radial strain and circumferential displacement were measured by regional wall and summed average from the SAX images. From the M-mode images, left ventricular cavity size and wall thickness was measured and the ejection fraction (EF) and fractional shortening (FS) calculations were obtained using the Vevo software. […] In addition, the average change from baseline for each time point between 5 and 30 minutes was determined for each mouse, with measurements being taken every 5 minutes. […]

CCCN(CCC)S(=O)(=O)c1ccc(C(=O)O)cc1 [probenecid]
cytosolic Ca2+ in TRPV2-expressing cells (TRPV2): significant increase | peak +dP/dt in vivo (WT mice): rapidly increased | cardiac function (EF) by echocardiography (healthy pig model; bolus of 5 mg/kg IV, 5 mg/kg): rapid increase in EF | cardiac function by echocardiography (healthy pig model; continuous drip 5 mg/kg/hr (first 60 minutes) and 10 mg/kg/hr (second thirty minutes)): improves function; also recorded: improvement in cardiac function | radial displacement (mice after I/R injury [1]; oral in water after 45 min I/R, water 0.018±0.018, p<0.05): 0.071±0.013 | LV cavity size (LV Vol;d) increase (mice after I/R injury [1]; oral in water after 45 min I/R, water 22.55±4.47, p=0.076): 7.59±6.08 | change in EF (mice after I/R injury [1]; oral in water after I/R (FIG. 11D legend)): slight (but not statistically significant) increase in the change in EF | increase of myocyte fractional shortening (FS) ([2]; 0.1 μM, 0.5 Hz, room temp, n=6): 30.8±1.4% | myocyte fractional shortening (FS) ([2]; 0.1 μM, 0.5 Hz, room temp, from 6.9% control): 9.0% | myocyte fractional shortening (FS) ([2]; 3 Hz and 32° C., n=4, from 10.1% control): 13.9% | pEC50 ([2]; Mus musculus, Ventricular myocyte, isolated ventricular myocytes, averages from 4 mice, read-out: EC50 of dose-response curve on myocyte contractility): 8.80 | maximum +dL/dt (rate of shortening) ([2]; room temperature, n=10, from 80.6±12.3): 112.5±16.6 μm/sec | −dL/dt (rate of relengthening) ([2]; room temperature, from 57.7±7.4): 77.6±8.7 μm/sec | EF after I/R injury (mice after I/R injury [3]; 100 mg/kg IP bolus, all treated mice): statistically significant increase in EF | change in EF at peak effect (mice after I/R injury [3]; 100 mg/kg IP, 10 minutes, mice with initial EF 50-60%): 19.72±4.10% | time of peak effect on EF (mice after I/R injury [3]; 100 mg/kg IP, mice with initial EF 50-60%): 10 min | contractility over time (mice after I/R injury [3]; 100 mg/kg IP, mice with lower initial EFs (40-50%)): continued to enhance contractility throughout the full 30-minute experiment | apoptosis in healthy mice [4]: did not induce significant apoptosis | decrease in contractility response versus WT (TRPV2^+/− mice): approximately 50%
